Patent publication US9783573B2, “IAP antagonists” (BRISTOL-MYERS SQUIBB COMPANY, priority 2012, dated 2017)

Assays:
Assay type in all cases: binding
[1] = biological target: His-BIR2-3 (125-356, C202A/C213G, XIAP) (Homo sapiens (Human), UniProt P98170, C202A/C213G); test: XIAP-BIR2-3 Dimeric SMAC Peptide Homogeneous Time Resolved Fluorescence (HTRF) Assay; conditions: fluorescein labeled dimeric SMAC peptide
Experimental: D. XIAP-BIR2-3 Dimeric SMAC Peptide Homogeneous Time Resolved Fluorescence (HTRF) Assay
(§1) Assays were performed in black, flat-bottom, 384-well plates.

[2] = biological target: His-BIR3 (241-356, XIAP) (Homo sapiens (Human), UniProt P98170); test: XIAP-BIR3/SMAC Homogeneous Time Resolved Fluorescence (HTRF) Assay; conditions: fluorescein labeled SMAC peptide
Experimental: B. XIAP-BIR3/SMAC Homogeneous Time Resolved Fluorescence (HTRF) Assay
as §1

[3] = biological target: N-His-Tb-BIR3 (241-356, XIAP) (Homo sapiens (Human), UniProt P98170); test: biochemical; conditions: fluoresceinated modified SMAC peptide, fluorescence polarization; read-out: XIAP BIR3 FPA IC50

## CN[C@@H](C)C(=O)N[C@H](C(=O)N1C[C@@H](NC(=O)c2ccc(C(=O)Nc3ccc4c(c3)CN(C(=O)[C@@H](NC(=O)[C@H](C)NC)C(C)(C)SCC(=O)OC)[C@H](C(=O)N[C@@H]3CCCc5ccccc53)C4)cc2)C[C@H]1C(=O)N[C@@H]1CCCc2ccccc21)C(C)(C)C [Example 56, Methyl 2-(((R)-4-((S)-7-(4-(((3S,5S)-1-((S)-3,3-dimethyl-2-((S)-2-(methylamino)propanamido)butanoyl)-5-(((R)-1,2,3,4-tetrahydronaphthalen-1-yl)carbamoyl)pyrrolidin-3-yl)carbamoyl)benzamido)-3-(((R)-1,2,3,4-tetrahydronaphthalen-1-yl)carbamoyl)-3,4-dihydroisoquinolin-2(1H)-yl)-2-methyl-3-((S)-2-(methylamino)propanamido)-4-oxobutan-2-yl)thio)acetate]
[1]
  IC50: 0.012 µM
[2]
  IC50: 0.017 µM

## CN[C@@H](C)C(=O)N[C@H](C(=O)N1C[C@@H](NC(=O)c2ccc(C(=O)Nc3ccc4c(c3)CN(C(=O)[C@@H](NC(=O)[C@H](C)NC)C(C)(C)SCC(=O)Nc3nccs3)[C@H](C(=O)N[C@@H]3CCCc5ccccc53)C4)cc2)C[C@H]1C(=O)N[C@@H]1CCCc2ccccc21)C(C)(C)C [Example 60, N^1-((3S,5S)-1-((S)-3,3-Dimethyl-2-((S)-2-(methylamino)propanamido)butanoyl)-5-(((R)-1,2,3,4-tetrahydronaphthalen-1-yl)carbamoyl)pyrrolidin-3-yl)-N^4-((S)-2-((R)-3-methyl-2-((S)-2-(methylamino)propanamido)-3-((2-oxo-2-(thiazol-2-ylamino)ethyl)thio)butanoyl)-3-(((R)-1,2,3,4-tetrahydronaphthalen-1-yl)carbamoyl)-1,2,3,4-tetrahydroisoquinolin-7-yl)terephthalamide]
[1]
  IC50: 0.022 µM
[2]
  IC50: 0.042 µM

## CN[C@@H](C)C(=O)N[C@H](C(=O)N1C[C@@H](NC(=O)c2ccc(C(=O)Nc3ccc4c(c3)CN(C(=O)[C@@H](NC(=O)[C@H](C)NC)C(C)(C)SC)[C@H](C(=O)N[C@@H]3CCCc5ccccc53)C4)cc2)C[C@H]1C(=O)N[C@@H]1CCCc2ccccc21)C(C)(C)C [Example 55, N^1-((3S,5S)-1-((S)-3,3-Dimethyl-2-((S)-2-(methylamino)propanamido)butanoyl)-5-(((R)-1,2,3,4-tetrahydronaphthalen-1-yl)carbamoyl)pyrrolidin-3-yl)-N^4—((S)-2-((R)-3-methyl-2-((S)-2-(methylamino)propanamido)-3-(methylthio)butanoyl)-3-(((R)-1,2,3,4-tetrahydronaphthalen-1-yl)carbamoyl)-1,2,3,4-tetrahydroisoquinolin-7-yl)terephthalamide]
[1]
  IC50: 0.004 µM
[2]
  IC50: 0.009 µM

## CN[C@@H](C)C(=O)N[C@H](C(=O)N1Cc2ccc(NC(=O)c3ccc(C(=O)N[C@H]4C[C@@H](C(=O)N[C@@H]5CCCc6ccccc65)N(C(=O)[C@@H](NC(=O)[C@H](C)NC)C(C)(C)C)C4)cc3)cc2C[C@H]1C(=O)N[C@@H]1CCCc2ccccc21)C(C)(C)C [Example 2, N^1—((S)-2-((S)-3,3-Dimethyl-2-((S)-2-(methylamino)propanamido)butanoyl)-3-(((R)-1,2,3,4-tetrahydronaphthalen-1-yl)carbamoyl)-1,2,3,4-tetrahydroisoquinolin-6-yl)-N^4-((3S,5S)-1-((S)-3,3-dimethyl-2-((S)-2-(methylamino)propanamido)butanoyl)-5-(((R)-1,2,3,4-tetrahydronaphthalen-1-yl)carbamoyl)pyrrolidin-3-yl)terephthalamide]
[1]
  IC50: 0.004 µM

## CN[C@@H](C)C(=O)N[C@H](C(=O)N1Cc2cc(NC(=O)CCC(=O)N[C@H]3C[C@@H](C(=O)N[C@@H]4CCCc5ccccc54)N(C(=O)[C@@H](NC(=O)[C@H](C)NC)C(C)(C)C)C3)ccc2C[C@H]1C(=O)N[C@@H]1CCCc2ccccc21)C(C)(C)C [Example 1, N^1—((S)-2-((S)-3,3-Dimethyl-2-((S)-2-(methylamino)propanamido)butanoyl)-3-(((R)-1,2,3,4-tetrahydronaphthalen-1-yl)carbamoyl)-1,2,3,4-tetrahydroisoquinolin-7-yl)-N^4-((3S,5S)-1-((S)-3,3-dimethyl-2-((S)-2-(methylamino)propanamido)butanoyl)-5-(((R)-1,2,3,4-tetrahydronaphthalen-1-yl)carbamoyl)pyrrolidin-3-yl)succinamide]
[3]
  IC50: 0.061 µM

## CN[C@@H](C)C(=O)N[C@H](C(=O)N1Cc2ccc(OCc3ccc(C(=O)N[C@H]4C[C@@H](C(=O)N[C@@H]5CCCc6ccccc65)N(C(=O)[C@@H](NC(=O)[C@H](C)NC)C(C)(C)C)C4)cc3)cc2C[C@H]1C(=O)N[C@@H]1CCCc2ccccc21)C(C)(C)C [Example 41, (S)-2-((S)-3,3-Dimethyl-2-((S)-2-(methylamino)propanamido)butanoyl)-6-((4-(((3S,5S)-1-((S)-3,3-dimethyl-2-((S)-2-(methylamino)propanamido)butanoyl)-5-(((R)-1,2,3,4-tetrahydronaphthalen-1-yl)carbamoyl)pyrrolidin-3-yl)carbamoyl)benzyl)oxy)-N-((R)-1,2,3,4-tetrahydronaphthalen-1-yl)-1,2,3,4-tetrahydroisoquinoline-3-carboxamide]
[3]
  IC50: 0.065 µM

## CC[C@H](NC)C(=O)N[C@H](C(=O)N1Cc2cc(NC(=O)c3ccc(C(=O)N[C@H]4C[C@@H](C(=O)N[C@@H]5CCCc6ccccc65)N(C(=O)[C@@H](NC(=O)[C@H](C)NC)C(C)(C)C)C4)cc3)ccc2C[C@H]1C(=O)N[C@@H]1CCCc2ccccc21)C(C)(C)C [Example 15, N^1-((S)-2-((S)-3,3-Dimethyl-2-((S)-2-(methylamino)butanamido)butanoyl)-3-(((R)-1,2,3,4-tetrahydronaphthalen-1-yl)carbamoyl)-1,2,3,4-tetrahydroisoquinolin-7-yl)-N^4-((3S,5S)-1-((S)-3,3-dimethyl-2-((S)-2-(methylamino)propanamido)butanoyl)-5-(((R)-1,2,3,4-tetrahydronaphthalen-1-yl)carbamoyl)pyrrolidin-3-yl)terephthalamide]
[3]
  IC50: 0.11 µM

## CN[C@@H](C)C(=O)N[C@H](C(=O)N1Cc2cc(C(=O)Nc3ccc(C(=O)N[C@H]4C[C@@H](C(=O)N[C@@H]5CCCc6ccccc65)N(C(=O)[C@@H](NC(=O)[C@H](C)NC)C(C)(C)C)C4)cc3)ccc2C[C@H]1C(=O)N[C@@H]1CCCc2ccccc21)C(C)(C)C [Example 27, (S)-2-((S)-3,3-Dimethyl-2-((S)-2-(methylamino)propanamido)butanoyl)-N^7-(4-(((3S,5S)-1-((S)-3,3-dimethyl-2-((S)-2-(methylamino)propanamido)butanoyl)-5-(((R)-1,2,3,4-tetrahydronaphthalen-1-yl)carbamoyl)pyrrolidin-3-yl)carbamoyl)phenyl)-N^3—((R)-1,2,3,4-tetrahydronaphthalen-1-yl)-1,2,3,4-tetrahydroisoquinoline-3,7-dicarboxamide]
[3]
  IC50: 0.073 µM
